What follows are compounds tested against purified LasB protein from P. aeruginosa (Pseudomonas aeruginosa (strain ATCC 15692 / DSM 22644 / CIP 104116 / JCM 14847 / LMG 12228 / 1C / PRS 101 / PAO1), UniProt P14756) (assay: Fluorometric assay to determine Ki (Abz-Ala-Gly-Leu-Ala-p-Nitro-Benzyl-Amide substrate)). Conditions: 250 μM substrate, Ki calculated from IC50.
Format: biochemical
Protocol: Experiments were therefore conducted (1) to measure the potency of inhibition of compounds of the invention against purified Pseudomonas aeruginosa LasB enzyme and also experiments were conducted (2) to measure the ability of compounds of the invention to inhibit LasB-catalysed elastin degradation. The first assay uses a commercial fluorescent synthetic peptide and purified LasB enzyme. The LasB hydrolysis kinetics are measured allowing the determination of the IC50 and Ki of the inhibitors; the second is a more physiological assay using dialysed Pseudomonas aeruginosa supernatant as source of enzyme, plus its natural substrate Elastin. It is an “end point assay” that determines the percentage of LasB inhibition by each compound for one particular time point and inhibitor concentration. Technical details are described below:
Fluorometric Assay to Determine Ki
This assay uses commercially available substrate (Abz-Ala-Gly-Leu-Ala-p-Nitro-Benzyl-Amide (Ex: 340 nm, Em: 415 nm) from Peptide International) and purified LasB protein from P. aeruginosa (provided by Merck or Charles River Laboratories). It is performed to determine LasB elastase activity and assess compound inhibition in 96-well plate format. All compounds of Formula (I) were assessed using the method described below.
Method: 10 to 140 ng/ml purified LasB is incubated with 250 μM Abz-Ala-Gly-Leu-Ala-p-Nitro-Benzyl-Amide in 50 mM Tris-HCl pH 7.4, 2.5 mM CaCl2), 0.01% of Triton X100 at 37° C. LasB activity (corresponding to fluorescence emission induced by substrate hydrolysis) is measured over 30 min at 37° C. with a fluorescence plate reader such as the Perkin Elmer Envision or similar. Different range of inhibitor concentrations are routinely assessed depending of inhibitor potency from 0.0016 to 200 μM (2-fold dilutions series) in order to determine IC50.
The equation used to calculate the Ki from IC50 is: Ki=IC50/(1+([S]/Km)) where [S]=250 μM and Km=214 μM.

purified LasB protein from P. aeruginosa, sequence (P14756 198-498): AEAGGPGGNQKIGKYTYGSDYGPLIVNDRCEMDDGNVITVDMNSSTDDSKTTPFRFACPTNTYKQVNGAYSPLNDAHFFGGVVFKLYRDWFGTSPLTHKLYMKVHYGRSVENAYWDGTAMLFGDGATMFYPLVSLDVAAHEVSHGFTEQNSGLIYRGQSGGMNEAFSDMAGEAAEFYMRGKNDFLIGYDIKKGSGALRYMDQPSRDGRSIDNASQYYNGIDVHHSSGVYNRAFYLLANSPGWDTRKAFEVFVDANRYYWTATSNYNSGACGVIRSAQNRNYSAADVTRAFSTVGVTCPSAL

SMILES	Ki [nM]
CC[N+](C)(CC)CCCOc1cc2nc(CNC(=O)C3(CC(=O)[O-])Cc4ccccc4C3)sc2cc1OC [Example 18, 2-[2-[[5-[3-[diethyl(methyl)ammonio]propoxy]-6-methoxy-1,3-benzothiazol-2-yl]methylcarbamoyl]indan-2-yl]acetate]	< 50
COc1cc2sc(CNC(=O)C3(CC(=O)O)Cc4cc(F)c(F)cc4C3)nc2cc1OCC1CCN(C)CC1 [Example 11, 2-[5,6-difluoro-2-[[6-methoxy-5-[(1-methyl-4-piperidyl)methoxy]-1,3-benzothiazol-2-yl]methylcarbamoyl]indan-2-yl]acetic Acid]	< 50
COc1cc2sc(CNC(=O)C3(CC(=O)O)Cc4cc(F)c(F)cc4C3)nc2cc1C(=O)N1CC(N(C)C)C1 [Example 37, 2-[2-[[5-[3-(dimethylamino)azetidine-1-carbonyl]-6-methoxy-1,3-benzothiazol-2-yl]methylcarbamoyl]-5,6-difluoro-indan-2-yl]acetic Acid]	< 50
COc1cc2sc(CNC(=O)C3(CC(=O)[O-])Cc4ccccc4C3)nc2cc1OCCC[N+]1(C)CCOCC1 [Example 16, 2-[2-[[6-methoxy-5-[3-(4-methylmorpholin-4-ium-4-yl)propoxy]-1,3-benzothiazol-2-yl]methylcarbamoyl]indan-2-yl]acetate]	< 50
COc1cc2sc(CNC(=O)C3(CC(=O)[O-])Cc4cc(F)c(F)cc4C3)nc2cc1OCCC[N+]1(C)CCCC1 [Example 19, 2-[5,6-difluoro-2-[[6-methoxy-5-[3-(1-methylpyrrolidin-1-ium-1-yl)propoxy]-1,3-benzothiazol-2-yl]methylcarbamoyl]indan-2-yl]acetate]	< 50
COc1cc2sc(CNC(=O)C3(CC(=O)O)Cc4cc(F)c(F)cc4C3)nc2cc1OCCN1CCOCC1 [Example 10, 2-[5,6-difluoro-2-[[6-methoxy-5-(2-morpholinoethoxy)-1,3-benzothiazol-2-yl]methylcarbamoyl]indan-2-yl]acetic Acid]	< 50
COc1cc2sc(CNC(=O)C3(CC(=O)[O-])Cc4cc(F)c(F)cc4C3)nc2cc1OCCC[N+](C)(CCO)CCO [Example 23, 2-[2-[[5-[3-[bis(2-hydroxyethyl)-methyl-ammonio]propoxy]-6-methoxy-1,3-benzothiazol-2-yl]methylcarbamoyl]-5,6-difluoro-indan-2-yl]acetate]	< 50
COc1cc2sc(CNC(=O)C3(CC(=O)[O-])Cc4cc(F)c(F)cc4C3)nc2cc1OCC1CC[N+](C)(C)CC1 [Example 44, 2-[2-[[5-[(1,1-dimethylpiperidin-1-ium-4-yl)methoxy]-6-methoxy-1,3-benzothiazol-2-yl]methylcarbamoyl]-5,6-difluoro-indan-2-yl]acetate]	< 50
COc1cc2sc(CNC(=O)C3(CC(=O)[O-])Cc4ccccc4C3)nc2cc1OCCC[N+](C)(CCO)CCO [Example 22, 2-[2-[[5-[3-[bis(2-hydroxyethyl)-methyl-ammonio]propoxy]-6-methoxy-1,3-benzothiazol-2-yl]methylcarbamoyl]indan-2-yl]acetate]	< 50
COc1cc2sc(CNC(=O)C3(CC(=O)O)Cc4ccccc4C3)nc2cc1OCCN1CCOCC1 [Example 9, 2-[2-[[6-methoxy-5-(2-morpholinoethoxy)-1,3-benzothiazol-2-yl]methylcarbamoyl]indan-2-yl]acetic Acid]	< 50
COc1cc2sc(CNC(=O)C3(CC(=O)O)Cc4ccccc4C3)nc2cc1C(=O)N1CCN(C)CC1 [Example 33, 2-[2-[[6-methoxy-5-(4-methylpiperazine-1-carbonyl)-1,3-benzothiazol-2-yl]methylcarbamoyl]indan-2-yl]acetic Acid]	< 50
COc1cc2sc(CNC(=O)C3(CC(=O)O)Cc4ccccc4C3)nc2cc1C(=O)N1CC(N(C)C)C1 [Example 36, 2-[2-[[5-[3-(dimethylamino)azetidine-1-carbonyl]-6-methoxy-1,3-benzothiazol-2-yl]methylcarbamoyl]indan-2-yl]acetic Acid]	< 50
COc1cc2sc(CNC(=O)C3(CC(=O)[O-])Cc4ccccc4C3)nc2cc1OCCC[N+](C)(C)CCO [Example 20, 2-[2-[[5-[3-[2-hydroxyethyl(dimethyl)ammonio]propoxy]-6-methoxy-1,3-benzothiazol-2-yl]methylcarbamoyl]indan-2-yl]acetate]	< 50
COc1cc2sc(CNC(=O)C3(CC(=O)[O-])Cc4cc(F)c(F)cc4C3)nc2cc1OCCC[N+](C)(C)CCO [Example 21, 2-[5,6-difluoro-2-[[5-[3-[2-hydroxyethyl(dimethyl)ammonio]propoxy]-6-methoxy-1,3-benzothiazol-2-yl]methylcarbamoyl]indan-2-yl]acetate]	< 50

These compounds were tested on Pseudomonas aeruginosa (PAO1) (assay: Mouse model of Pseudomonas aeruginosa lung infection). Conditions: mice infected with wild-type PAO1, intravenous 10 and 30 mg/kg at 1 h and 2 h post infection, 24 hours post infection (FIG. 2).
Format: in vivo
Protocol: Mice were dosed by intranasal inoculation of PA (PAO1), then sacrified after 24 hours. The extent of infection in the lung was quantified by bacterial load (CFU determination, colony forming units) and the levels of proinflammatory IL-1β. Statistical analysis on both readouts were performed by ANOVA with a Dunnett post-test.
Compounds were administered intravenously in a two-dose regimen (1 hour and 2 hours post infection) at two different doses (10 and 30 mg/kg).

SMILES	production and activation of IL-1β in the lung
COc1cc2sc(CNC(=O)C3(CC(=O)[O-])Cc4cc(F)c(F)cc4C3)nc2cc1OCCC[N+](C)(CCO)CCO [Example 23, 2-[2-[[5-[3-[bis(2-hydroxyethyl)-methyl-ammonio]propoxy]-6-methoxy-1,3-benzothiazol-2-yl]methylcarbamoyl]-5,6-difluoro-indan-2-yl]acetate]	inhibited the production and activation of IL-1β in mice infected by wild-type PA (PA01) at a similar level than the lasB deleted mutant

Same assay, conditions: mice infected with wild-type PAO1, intravenous 10 and 30 mg/kg at 1 h and 2 h post infection, 24 hours post infection (FIG. 3)

SMILES	extent of infection in the lung (CFU levels)
COc1cc2sc(CNC(=O)C3(CC(=O)[O-])Cc4cc(F)c(F)cc4C3)nc2cc1OCCC[N+](C)(CCO)CCO [Example 23, 2-[2-[[5-[3-[bis(2-hydroxyethyl)-methyl-ammonio]propoxy]-6-methoxy-1,3-benzothiazol-2-yl]methylcarbamoyl]-5,6-difluoro-indan-2-yl]acetate]	reduced the extent of infection in the lung to the level of the LasB deleted mutant

— patent US12247013B2, “Indane derivatives for use in the treatment of bacterial infection” (priority 2018, dated 2025)
